Measurements published in patent publication US20160377605A1, “LYSOSOMAL ATP SELECTIVE TWO-PHOTON ABSORBING FLUORESCENT PROBE” (POSTECH ACADEMY-INDUSTRY FOUNDATION, priority 2015, published 2016).

Experiments:
[1] = system: HeLa cells; assay: MTT assay cytotoxicity / cell viability; type: cell-based
Experimental: The present inventors examine the cytotoxicity of Compound 4 (R1═R2═H), which is the fluorescent probe according to embodiments of the present invention, by treating HeLa cells (human uterine cancer cells) with the compound, and the results are provided in FIG. 5.
To examine the cytotoxicity of Compound 4, an MTT assay was conducted on the HeLa cells and the cell viability was assessed.
Specifically, the cells (100 μL/well) were prepared in a 96-well plate at the density of about 5×10^3 cells per well. The cells were treated with Compound 4 at the concentration of 10, 30, 50, or 100 μM, cultured for 1 hour, and then washed with a PBS buffer solution. 25 μL of a 5 mg/mL 3-(4,5-[…])-2,5-diphenyltetrazolium bromide (MTT) solution was put in each well. After culturing for 2 hours at 37° C., the medium was removed, formazan crystals were dissolved in dimethyl sulfoxide (DMSO), and the absorbance was measured using a plate reader. According to FIG. 5, Compound 4 was confirmed to have low cytotoxicity up to the concentration of 10 μM within 24 hours (about 8% of the cells died). In addition, even when the concentration of Compound 4 was increased to 100 μM, it was confirmed that cytotoxicity within 8 hours was low (about 20% of the cells died), which indicated the possibility of conducting experiments in the corresponding range.

[2] = system: lysosomal ATP in HeLa cells; assay: Lysosomal selectivity: colocalization with LysoTracker by one-photon and two-photon fluorescence microscopy; type: cell-based, human
Experimental: The present inventors treated HeLa cells with Compound 4 (R1═R2═H), which is a fluorescent probe, examined a fluorescence emission phenomenon through two-photon fluorescence microscopy, and assessed lysosomal selectivity by treating the cells also with LysoTracker (Life Technologies Corp.), which is a lysosome marker widely used to assess lysosomal selectivity, and then performing one-photon and two-photon fluorescence microscopy. The scale bar in FIG. 6 is 25 μm.
Each cell was cultured in Minimum Essential Medium with Earle's Balanced Salts (MEM/EBSS) of Hyclone™ GE Healthcare Life Sciences and a Dulbecco's modified Eagle's medium (DMEM), and the culture was carried out at 37° C. […] The cells prepared as thus were observed through two-photon fluorescence microscopy to obtain fluorescence images, and the two-photon fluorescence microscopic images were obtained at a 780 nm excitation wavelength and through a laser power of 4 mW respectively in the blue channel (440-490 nm), yellow channel (550-600 nm), and red channel (650-700 nm). […]
The experiment was repeated with LysoTracker Deep Red (Life Technologies Corp.). HeLa cells were treated with LysoTracker, and then a fluorescence image thereof was obtained with a one-photon fluorescence microscope (TCS SP5 II, Leica, Germany). […]

[3] = Fluorescence ATP detection characteristic, ratiometric, in PBS solution
Experimental: Specifically, to observe the ATP detection characteristic of Compound 4, the present inventors measured a fluorescence spectrum (the fluorescence spectrum was obtained using a Photon Technical International Fluorescence System) by filling a quartz fluorescence cell (114F-QS, Hellma Analytics) with a 1 cm light path with a pH 5.5 PBS solution (with 0.1% acetonitrile) comprising 10 μM Compound 4 and ATP (0.0-1.0 mM), and graphs of the normalized fluorescence intensity (y-axis) with respect to the wavelength (x-axis) are shown in FIG. 2A. […] In addition, to assess the feasibility of quantification by a ratiometric detection system, the correlation between the ATP concentration (x-axis) and the fluorescence ratio (the ratio between two types of fluorescence) (y-axis) was provided in FIG. 2B. As appears in FIG. 2B, the proportional relationship between the ATP concentration and the ratio between two types of fluorescence proves the feasibility of quantification by a ratiometric detection system.
In order to assess the correlation between the ATP detection by Compound 4 and the pH of the solution, the present inventors measured a fluorescence spectrum (the fluorescence spectrum was obtained using a Photon Technical International Fluorescence System) by filling a quartz fluorescence cell (114F-QS, Hellma Analytics) with a 1 cm light path with a PBS solution (with 0.1% acetonitrile) with a pH range of 4.0 to 8.0 comprising 10 μM Compound 4 and ATP (0.0-1.0 mM), and graphs of the fluorescence ratio (y-axis) with respect to the pH (x-axis) are shown in FIG. 3A. According to FIG. 3A, the detectability changed with pH. It was observed that ATP was detected only under acidic conditions (pH 4.8-5.8) of lysosomes, which are the only organelles maintaining acidic conditions in cells, and was not detected at near-neutral pH (pH 7.0-7.5), which corresponds to the pH of most cells. In addition, the fluorescence ratio (y-axis) that changes with respect to the ATP concentration (x-axis) is provided for the pH range of 4.5 to 5.5 in FIG. 3B.

[4] = Absorption characteristic of fluorescent probe with and without ATP; type: physicochemical; conditions: 10 μM, pH 5.5 PBS (0.1% acetonitrile)
Experimental: Specifically, to observe the absorption characteristic of the fluorescent probe, the present inventors measured an absorbance spectrum by filling, with a pH 5.5 PBS solution (with 0.1% acetonitrile) comprising 10 μM Compound 4, a quartz fluorescence cell (114F-QS, Hellma Analytics) with a 1 cm light path, and a graph of the absorbance (y-axis) with respect to the wavelength (x-axis) is shown in FIG. 1A. In addition, another absorbance spectrum was measured by filling a quartz fluorescence cell (114F-QS, Hellma Analytics) with a 1 cm light path with a pH 5.5 PBS solution (with 0.1% acetonitrile) comprising 10 μM Compound 4 and 1 mM ATP, and a graph of the absorbance (y-axis) with respect to the wavelength (x-axis) is shown in FIG. 1B. […] On the other hand, in FIG. 1B in which ATP was detected, a new absorption was observed near 540 nm in addition to 400 nm. The absorbance spectra were obtained using the HP 8453 UV/Vis spectrophotometer.

[5] = system: lysosomal ATP in rat brain tissue; assay: Two-photon microscopic imaging of rat brain tissue treated with fluorescent probe; conditions: rat brain tissue slice, 30 μM, 20 minutes, 780 nm two-photon excitation
Experimental: The present inventors treated a rat brain tissue with Compound 4 (R1═R2═H), which is the fluorescent probe according to embodiments of the present invention and observed the changes in fluorescence through two-photon fluorescence microscopy, and the results are provided in FIG. 8. The scale bar in FIG. 8 is 80 μm.
Specifically, to obtain a two-photon fluorescence microscopic image of a rat tissue treated with Compound 4, an experiment was carried out under a condition of isolated from light (in a dark room) using a […] rat (5 weeks old, male, Samtako Inc.). The brain of the rat was dissected and washed with a PBS buffer solution, and then the individual organs were frozen with dry ice for 5 minutes. The frozen organs were broken with a hammer, and 50 μm-thick tissue slice samples were prepared using a cryostat machine (CM3000, Leica). […] The fluorescence was observed through two-photon fluorescence microscopy. The two-photon fluorescence microscope was configured with a 20× objective lens (HCX APO L 20×/1.00 W, Leica, Germany), and the observation was carried out using a Ti: Sapphire laser (Chameleon Ultra II, Coherent) with 6 mW laser output and at a 780 nm two-photon excitation wavelength.

[6] = Selectivity of ATP detection among various cations and anions (fluorescence ratio); conditions: 10 μM, pH 5.5 PBS, analytes at 1 mM
Experimental: In order to examine the selectivity of Compound 4 in ATP detection, the present inventors measured a fluorescence spectrum (the fluorescence spectrum was obtained using a Photon Technical International Fluorescence System) by filling a quartz fluorescence cell (114F-QS, Hellma Analytics) with a 1 cm light path with a pH 5.5 PBS solution (with 0.1% acetonitrile) comprising Compound 4 at 10 μM and various cations and anions (ATP, ADP, AMP, cytidine triphosphate (CTP), uridine triphosphate (UTP), guanosine triphosphate (GTP), thymine triphosphate (TTP), […] (PPi), phosphoric acid (H3PO4), nitrate anions (NO3^−), phosphate anions (PO4^3−), dithionite ion (S2O4^2−), sulfate ion (SO4^2−), acetate ion, nitrite ion (NO2^−), perchlorate ions (ClO4^−), citrate ions, monohydrogen phosphate ions (HPO4^2−), cyanide ions (CN^−), nickel ions (Ni^+), silver ions (Ag^+), manganese ions (Mn^2+), palladium ions (Pd^2+), cadmium ions (Cd^2+), cobalt ions (Co^3+), iron ions (Fe^+), zinc ion (Zn^2+), copper ion (Cu^2+), potassium ion (K^+), magnesium ion (Mg^2+), calcium ions (Ca^2+), sodium ions (Na^+), lead ions (Pb^2+), and chromium ions (Cr^3+)) at 1 mM, and the fluorescence ratios (y-axis) for various analytes (x-axis) were provided in FIG. 4.

For `CCNc1cc2c(cc1C)C1(c3cc(C)c(NCC)cc3O2)c2ccccc2C(=O)N1CCNCCNCCNC1=C2C=CC=[N+]2[B-](F)(F)n2cccc21` [Compound 4, 10-((2-((2-((2-(3′,6′-bis(ethylamino)-2′,7′-dimethyl-3-oxospiro[isoindoline-1,9′-xanthen]-2-yl)ethyl)amino)ethyl)amino)ethyl)amino)-5,5-difluoro-5H-dipyrrolo[1,2-c:2′,1′-f][1,3,2]diazaborinin-4-ium-5-uide], the “cytotoxicity, cells died” value ([1]; 100 μM, within 8 hours) was “about 20%”, the “cytotoxicity, cells died” value ([1]; up to 10 μM, within 24 hours) was “about 8%” and the lysosomal selectivity [2] was “highly selective to lysosomes”. For the same compound, the “colocalization factor with LysoTracker” value ([2]; 10 μM Compound 4 and 50 nM LysoTracker, 1 hour) was “about 0.95”, the “pH range in which ATP was detected” value ([3]; 10 μM, PBS pH 4.0 to 8.0, ATP 0.0-1.0 mM, acidic conditions of lysosomes) was 4.8-5.8 pH and the “change of fluorescence intensity near 550 nm as ATP concentration increased” value ([3]; 10 μM, pH 5.5 PBS (0.1% acetonitrile), ATP 0.0-1.0 mM) was “greatly increased”. For the same compound, the “ATP detection at near-neutral pH” value ([3]; pH 7.0-7.5, 10 μM, ATP 0.0-1.0 mM) was “not detected”, the “new absorption wavelength when ATP was detected” value ([4]; 1 mM ATP, in addition to 400 nm) was about 540 nm and the “single absorption wavelength of the fluorescent probe” value ([4]; no ATP) was about 400 nm. The “detection of lysosomal ATP in deep tissue” value [5] was “selectively detected lysosomal ATP” and the “selectivity in ATP detection among various cations and anions” value [6] was “highly selective to ATP”.
